The first test deals with T1, human GAL2 receptor (Homo sapiens, UniProt O43603).
T1 construct: expressed in transfected cells
T1 sequence (O43603 1-387): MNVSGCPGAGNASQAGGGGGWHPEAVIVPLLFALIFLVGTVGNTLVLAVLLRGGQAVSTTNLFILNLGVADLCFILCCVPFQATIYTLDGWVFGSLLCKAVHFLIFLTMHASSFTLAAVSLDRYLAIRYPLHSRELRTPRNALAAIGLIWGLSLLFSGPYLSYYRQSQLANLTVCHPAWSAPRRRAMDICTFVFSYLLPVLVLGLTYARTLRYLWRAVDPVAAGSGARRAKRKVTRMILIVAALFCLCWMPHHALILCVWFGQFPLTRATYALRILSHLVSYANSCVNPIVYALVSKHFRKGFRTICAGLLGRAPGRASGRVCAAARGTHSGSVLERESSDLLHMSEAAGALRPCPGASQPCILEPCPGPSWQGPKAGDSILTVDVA
The experiment in a line: Radioligand binding at cloned human GAL2 receptor. The conditions noted are these: pyrimidines, read-out: Ki GalR2. On the procedure:
The binding properties of the pyrimidines of the present invention were evaluated at the cloned human galanin receptors, GAL1, GAL2, and GAL3, using protocols described herein.
The binding properties of the indolones of the present invention were evaluated at the cloned human galanin receptors, GAL1, GAL2, and GAL3, using protocols described herein.
LM(tk-) cells were stably transfected with the human GAL1 or GAL3 receptor. CHO cells were stably transfected with the human GAL2 receptor.
cDNAs for the human and rat GAL1, and human and rat GAL3 receptors were transfected with a G-418 resistant gene into the mouse fibroblast LM(tk-) cell line by a calcium phosphate transfection method (Cullen, 1987). Stably transfected cells were selected with G-418. Human and rat GAL2 receptors were similarly transfected into CHO cells.
Membranes were harvested from stably transfected LM(tk-) cells. Adherent cells were washed twice in ice-cold phosphate buffered saline (138 mM NaCl, 8.1 mM Na2HPO4, 2.5 mM KCl, 1.2 mM KH2PO4, 0.9 mM CaCl2, 0.5 mM MgCl2, pH 7.4) and lysed by sonication in ice-cold sonication buffer (20 mM Tris-HCl, 5 mM EDTA, pH 7.7). Large particles and debris were cleared by low speed centrifugation (200 x g, 5 min, 4°C). Membranes were collected from the supernatant fraction by centrifugation (32,000 x g, 18 min, 4°C), washed with ice-cold hypotonic buffer, and collected again by centrifugation (32,000 x g, 18 min, 4°C). The final membrane pellet was resuspended by sonication into a small volume of ice-cold binding buffer (-1 ml for every 5 plates: 10 mM NaCl, 20 mM HEPES, 0.22 mM KH2PO4, 1.26 mM CaCl2, 0.81 mM MgSO4, pH 7.4). Protein concentration was measured by the Bradford method (Bradford, 1976) using Bio-Rad Reagent, with bovine serum albumin as a standard. Membranes were held on ice for up to one hour and used fresh, or flash frozen and stored in liquid nitrogen. Membranes were prepared similarly from CHO cells.
Galanin Recentors: Binding assays were performed according to the following published methods: human GAL3 (PCT International Publication No. WO 98/15570), human GAL1 (PCT International Publication No. WO 95/2260), human GAL2 (PCT International Publication No. WO 97/26853).
Binding data were analyzed using nonlinear regression and statistical techniques available in the GraphPAD Prism package (San Diego, CA). Enzymatic assay data were derived from a standard curve of reference compound data.
Consider `Cc1ccc(Nc2cc(N(C)C)nc(N3CCN(c4ccc(C)cc4)CC3)n2)cc1` [Example 87], for which the Ki (usually the equilibrium dissociation constant of an inhibitor or competing ligand from its target) was determined as 4620 nM.

Regarding `Cc1ccc(Nc2cc(N3CCCCC3)nc(N3CCC(O)(c4ccccc4)CC3)n2)cc1` [Example 44], the inhibition constant (Ki) amounted to 1020 nM.

Consider `COCCN(CCc1c[nH]c2ccccc12)c1nc(Nc2ccc(C)cc2)cc(N2CCCCC2)n1` [Example 19], for which the Ki stood at 1770 nM.

`Cc1ccc(Nc2cc(N3CCCCC3)nc(N3CCN(c4ccccn4)CC3)n2)cc1` [Example 30]: the Ki came out at 2610 nM.

On to `COc1ccc2[nH]cc(CCNc3nc(Nc4ccc(C)cc4)cc(N4CCCCC4)n3)c2c1` [Example 9], for which the Ki is 2110 nM.

For the compound `Cc1ccc(Nc2cc(N3CCCCC3)nc(NCCc3c[nH]c4ccc(C)cc34)n2)cc1` [Example 8], the Ki was found to be 795 nM.

Turning to `Cc1ccc(Nc2cc(N3CCCCC3)nc(N3CCC(c4ccccc4)CC3)n2)cc1` [Example 24], the inhibitory constant (Ki) amounted to 3960 nM.

As to `Cc1ccc(Nc2cc(N3CCCCC3)nc(N3CCCc4ccccc43)n2)cc1` [Example 40], the Ki was determined as 2620 nM.

Take `COc1cc2c(cc1OC)CN(c1nc(Nc3ccc(C)cc3)cc(N3CCCCC3)n1)CC2` [Example 42]: the Ki was 1140 nM.

With `CN(CCc1c[nH]c2ccccc12)c1nc(Nc2cccc(F)c2)cc(N2CCCCC2)n1` [Example 14], the Ki stood at 1340 nM.

`Cc1ccc(Nc2cc(N3CCCCC3)nc(N3CCN(c4ncccn4)CC3)n2)cc1` [Example 37]: the Ki was 903 nM.

`Cc1ccc(Nc2cc(N(C)C)nc(N3CCC(c4ccccc4)CC3)n2)cc1` [Example 81]: the Ki came out at 4790 nM.

For the compound `Cc1ccc(Nc2cc(N(C)C)nc(N(C)C3CCCCC3)n2)cc1` [Example 73], the Ki worked out at 1550 nM.

For `Cc1ccc(Nc2cc(N3CCCCC3)nc(N3CCN(c4ncccc4C)CC3)n2)cc1` [Example 31], the Ki stood at 3400 nM.

Take `Cc1ccc(Nc2cc(N(C)C)nc(N3CCN(c4ccccc4C)CC3)n2)cc1` [Example 85]: the Ki is 4230 nM.

A further test addresses T2, human GAL3 receptor (Homo sapiens, UniProt O60755).
T2 construct: expressed in transfected cells
T2 sequence (O60755 1-368): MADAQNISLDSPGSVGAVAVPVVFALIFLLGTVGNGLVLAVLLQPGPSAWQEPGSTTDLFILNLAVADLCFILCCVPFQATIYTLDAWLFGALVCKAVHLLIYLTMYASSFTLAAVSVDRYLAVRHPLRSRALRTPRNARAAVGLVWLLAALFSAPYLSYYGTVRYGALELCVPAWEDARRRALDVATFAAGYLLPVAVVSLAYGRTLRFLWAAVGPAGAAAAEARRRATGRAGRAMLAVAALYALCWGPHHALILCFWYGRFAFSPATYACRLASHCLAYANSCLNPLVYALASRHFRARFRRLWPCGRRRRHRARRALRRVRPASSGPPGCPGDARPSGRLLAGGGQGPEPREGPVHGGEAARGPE
The experiment in a line: Radioligand binding at cloned human GAL3 receptor. The following applies: pyrimidines, cloned human receptor; read-out: Ki GalR3. In short, it runs like this:
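Compound vehicle, as final assay concentration, was 3% DMSO (indolones) or 1% ethanol/0.09% polypuronic acid F-127 (pyrimidines). Binding measured on fresh or frozen membranes of stably transfected LM(tk-) mouse fibroblasts carrying cloned human GAL3, in pH 7.4 HEPES buffer; values derived by nonlinear regression.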
As to `Cc1ccc(Nc2cc(N(C)C)nc(N3CCN(c4ccc(C)cc4)CC3)n2)cc1` [Example 87], the Ki was determined as 157 nM.

For `Cc1ccc(Nc2cc(N3CCCCC3)nc(N3CCC(O)(c4ccccc4)CC3)n2)cc1` [Example 44], the Ki is 133 nM.

With `COCCN(CCc1c[nH]c2ccccc12)c1nc(Nc2ccc(C)cc2)cc(N2CCCCC2)n1` [Example 19], the Ki came to 79 nM.

Turning to `Cc1ccc(Nc2cc(N3CCCCC3)nc(N3CCN(c4ccccn4)CC3)n2)cc1` [Example 30], the Ki worked out at 197 nM.

On to `COc1ccc2[nH]cc(CCNc3nc(Nc4ccc(C)cc4)cc(N4CCCCC4)n3)c2c1` [Example 9], for which the Ki was found to be 568 nM.

In the case of `Cc1ccc(Nc2cc(N3CCCCC3)nc(NCCc3c[nH]c4ccc(C)cc34)n2)cc1` [Example 8], the Ki was 264 nM.

With `Cc1ccc(Nc2cc(N3CCCCC3)nc(N3CCC(c4ccccc4)CC3)n2)cc1` [Example 24], the Ki came to 210 nM.

Take `Cc1ccc(Nc2cc(N3CCCCC3)nc(N3CCCc4ccccc43)n2)cc1` [Example 40]: the Ki came out at 164 nM.

`COc1cc2c(cc1OC)CN(c1nc(Nc3ccc(C)cc3)cc(N3CCCCC3)n1)CC2` [Example 42]: the Ki was 275 nM.

Take `CN(CCc1c[nH]c2ccccc12)c1nc(Nc2cccc(F)c2)cc(N2CCCCC2)n1` [Example 14]: the Ki was 54 nM.

With `Cc1ccc(Nc2cc(N3CCCCC3)nc(N3CCN(c4ncccn4)CC3)n2)cc1` [Example 37], the Ki was 343 nM.

For `Cc1ccc(Nc2cc(N(C)C)nc(N3CCC(c4ccccc4)CC3)n2)cc1` [Example 81], the Ki was 160 nM.

For `Cc1ccc(Nc2cc(N(C)C)nc(N(C)C3CCCCC3)n2)cc1` [Example 73], the Ki was 124 nM.

For the compound `Cc1ccc(Nc2cc(N3CCCCC3)nc(N3CCN(c4ncccc4C)CC3)n2)cc1` [Example 31], the Ki worked out at 174 nM.

Regarding `Cc1ccc(Nc2cc(N(C)C)nc(N3CCN(c4ccccc4C)CC3)n2)cc1` [Example 85], the Ki came out at 72 nM.
